The record followed here is ChEMBL document CHEMBL5154911, “Palmatine Derivatives as Potential Antiplatelet Aggregation Agents via Protein Kinase G/Vasodilator-Stimulated Phosphoprotein and Phosphatidylinositol 3-Kinase/Akt Phosphorylation” (J Med Chem, 2022).

Calls of active or inactive are those of the source. No cut-off for these calls is given here. Some results are limits rather than exact numbers.

The nature of data set [1]: Antiplatelet activity against ADP-induced C57BL/6J mouse platelet aggregation assessed as maximal aggregration rate at 10 uM preincubated for 10 mins followed by ADP addition relative to control. It counts as functional.
In data set [2] the test system is Platelet. As to the kind of experiment: Antiplatelet activity against ADP-induced C57BL/6J mouse platelet aggregation assessed as reduction in integrin alphaIIbbeta3 surface levels by measuring increase median fluorescence intensities at 10 uM incubated for 10 min by flow cytometry analysis. Type of data set: functional, cell-based.
Data set [3] has as its system Platelet. The experiment in a line: Antiplatelet activity against ADP-induced C57BL/6J mouse platelet aggregation assessed as reduction in P-selectin surface levels by measuring increase median fluorescence intensities at 10 uM incubated for 10 min by flow cytometry analysis. It counts as functional, cell-based. In general terms: Flow cytometry measures light scatter and fluorescence of single cells or particles in a stream.

Data set [4] deals with Platelet. As to the kind of experiment: Inhibition of ADP-induced Akt activation in C57BL/6J mouse platelet assessed as reduction of AKT phosphorylation at Ser473 by western blot analysis. Type of data set: cell-based. In general terms: In western blotting, separated proteins are transferred to a membrane and probed.
Data set [5] has as its system Platelet. As to the kind of experiment: Antiplatelet activity against ADP-induced C57BL/6J mouse platelet aggregation assessed as reduction on platelet aggregation at 2.5 to 10 uM preincubated for 10 mins followed by ADP addition. It counts as functional, cell-based. The following applies: dose 2.5-10 µM, DDE = dose-dependent effect.
The nature of data set [6]: Cytotoxicity against human HUVEC cells assessed as cell vaibility at 100 uM by MTS assay. Type of data set: toxicity, cell-based. The settings on record: read-out: Activity. (Tetrazolium assays rely on reduction of a dye to a coloured formazan, in cell work by metabolically active cells.)

Regarding `Br.COc1cc2c(cc1OC)-c1cc3ccc(OC)c(OCc4ccccc4[N+](=O)[O-])c3c[n+]1CC2`, in data set [1], the “%max” value was found to be 39.7%.
The same measure, in the same setting: for `Br.COc1cc2c(cc1OC)-c1cc3ccc(OC)c(OCc4ccc([N+](=O)[O-])cc4)c3c[n+]1CC2` the value was 37.9%; for `COc1cc2c(cc1OC)-c1cc3ccc(OC)c(OC)c3c[n+]1CC2` [PALMITINE], 38.4%; for `COc1cc2c(cc1OC)-c1cc3ccc(OC)c(OCc4ccc(C(F)(F)F)cc4)c3c[n+]1CC2.[Br-]`, 37.7%.
Same read-out and setting: to `COc1cc2c(cc1OC)-c1cc3ccc(OC)c(OS(=O)(=O)c4ccccc4)c3c[n+]1CC2.O=[S-](=O)c1ccccc1` belongs 39.4%; to `CCCCOc1c(OC)ccc2cc3[n+](cc12)CCc1cc(OC)c(OC)cc1-3.[Br-]`, 34.4%; to `COc1cc2c(cc1OC)-c1cc3ccc(OC)c(NCc4ccc(F)cc4)c3c[n+]1CC2.[Cl-]`, 34.2%.
The same measure, in the same setting: for `COC(=O)/C=C/c1ccc(Cc2c3[n+](cc4c(OC)c(OC)ccc24)CCc2cc(OC)c(OC)cc2-3)cc1.[Br-]` the value was 38.2%; for `Br.COc1cc2c(cc1OC)-c1cc3ccc(OC)c(OCc4cccc([N+](=O)[O-])c4)c3c[n+]1CC2`, 33.3%.
Regarding `COc1cc2c(cc1OC)-c1cc3ccc(OC)c(OCc4ccccc4)c3c[n+]1CC2.[Br-]`, the “%max” value in data set [1] was 36.9%.
On the same count and under the same terms, for `COc1cc2c(cc1OC)-c1cc3ccc(OC)c(OCC4CCC4)c3c[n+]1CC2.[Br-]` the value was 34.4%.
In the case of `CCCC(=O)Nc1c(OC)ccc2cc3[n+](cc12)CCc1cc(OC)c(OC)cc1-3.[Cl-]`, in data set [1], the “%max” value is listed as 34.3%.
For `COc1cc2c(cc1OC)-c1cc3ccc(OC)c(OCC(C)C)c3c[n+]1CC2.[Br-]`, the “%max” value in data set [1] is reported as 33.4%.
On the same count and under the same terms, for `COc1cc2c(cc1OC)-c1cc3ccc(OC)c(OS(=O)(=O)c4ccc([N+](=O)[O-])cc4)c3c[n+]1CC2.O=[SH](=O)c1ccccc1` the value was 37.7%; for `C/C=C/Cc1c2[n+](cc3c(OC)c(OC)ccc13)CCc1cc(OC)c(OC)cc1-2.[Br-]`, 40.3%; for `COc1cc2c(cc1OC)-c1cc3ccc(OC)c(NC(=O)c4cccc(F)c4)c3c[n+]1CC2.[Cl-]`, 40.6%.
On to `COc1cc2c(cc1OC)-c1cc3ccc(OC)c(NCc4ccc(Cl)cc4)c3c[n+]1CC2.[Cl-]`, for which, in data set [1], the “%max” value came out at 31.6%. Also, the outcome with Platelet [2] and in the data set on Platelet [3] was Active. The inhibition entry with Platelet [4] is “Active”. Besides, the Activity entry in the data set on Platelet [5] is “Dde”.
As for `CCOc1c(OC)ccc2cc3[n+](cc12)CCc1cc(OC)c(OC)cc1-3.[Br-]`, in data set [1], the “%max” value turned out to be 34.6%.
With `CCCCCCCOc1c(OC)ccc2cc3[n+](cc12)CCc1cc(OC)c(OC)cc1-3.[Br-]`, the “%max” value in data set [1] was determined as 35.3%.
Still for that read-out and setting: to `COc1cc2c(cc1OC)-c1cc3ccc(OC)c(NC(=O)C4CCCCC4)c3c[n+]1CC2.[Cl-]` belongs 37.7%; to `COc1cc2c(cc1OC)-c1cc3ccc(OC)c(OCc4cccc(F)c4)c3c[n+]1CC2.[Br-]`, 35.7%; to `C=CCOc1c(OC)ccc2cc3[n+](cc12)CCc1cc(OC)c(OC)cc1-3.[Br-]`, 34.3%.
The same measure, in the same setting: to `COc1cc2c(cc1OC)-c1cc3ccc(OC)c(OC(=O)c4ccccc4C)c3c[n+]1CC2.[Cl-]` belongs 38%; to `COc1cc2c(cc1OC)-c1c(Cc3ccccc3C#N)c3ccc(OC)c(OC)c3c[n+]1CC2.[Br-]`, 40.2%.
Same read-out and setting: for `CCCCNc1c(OC)ccc2cc3[n+](cc12)CCc1cc(OC)c(OC)cc1-3.[Cl-]` the value was 33.4%; for `COc1cc2c(cc1OC)-c1cc3ccc(OC)c(NC(=O)c4ccc(F)cc4)c3c[n+]1CC2.[Cl-]`, 37.1%; for `COc1cc2c(cc1OC)-c1cc3ccc(OC)c(NC(=O)C45CC6CC(CC(C6)C4)C5)c3c[n+]1CC2.[Cl-]`, 34.7%.
With `COc1ccc(CNc2c(OC)ccc3cc4[n+](cc23)CCc2cc(OC)c(OC)cc2-4)cc1.[Cl-]`, in data set [1], the “%max” value turned out to be 35.6%.
The same measure, in the same setting: for `CCC(=O)Oc1c(OC)ccc2cc3[n+](cc12)CCc1cc(OC)c(OC)cc1-3.[Cl-]` the value was 40.1%; for `COc1cc2c(cc1OC)-c1cc3ccc(OC)c(OCC4CCCC4)c3c[n+]1CC2.[Br-]`, 35.4%.
On to `COc1cc2c(cc1OC)-c1cc3ccc(OC)c(OCc4cccc(Br)c4)c3c[n+]1CC2.[Br-]`, for which, in data set [1], the “%max” value stood at 39.3%.
As for `COc1cc2c(cc1OC)-c1cc3ccc(OC)c(NCc4cccc(C#N)c4)c3c[n+]1CC2.[Cl-]`, the “%max” value in data set [1] stood at 36.3%.
Regarding `COc1cc2c(cc1OC)-c1cc3ccc(OC)c(OCC4CC4)c3c[n+]1CC2.[Br-]`, in data set [1], the “%max” value was determined as 30.4%. Besides, the viability at 100 µM in data set [6] came to 90%. Also, the result in the data set with Platelet [2] and in the data set on Platelet [3] was Active. For the same molecule, the inhibition entry with Platelet [4] is “Active”. Further, in the data set with Platelet [5], the Activity result was “Dde”.
In the case of `CCCC(=O)Oc1c(OC)ccc2cc3[n+](cc12)CCc1cc(OC)c(OC)cc1-3.[Cl-]`, in data set [1], the “%max” value worked out at 39.8%.
Same read-out and setting: for `COc1cc(COc2c(OC)ccc3cc4[n+](cc23)CCc2cc(OC)c(OC)cc2-4)cc(OC)c1.[Br-]` the value was 38.4%; for `COc1cc2c(cc1OC)-c1cc3ccc(OC)c(OC(=O)c4ccccc4)c3c[n+]1CC2.[Cl-]`, 42.6%.
The same measure, in the same setting: to `COc1cc2c(cc1OC)-c1c(Cc3cc(C)cc(C)c3)c3ccc(OC)c(OC)c3c[n+]1CC2.[Br-]` belongs 39.4%.
Same read-out and setting: for `CCCCC(=O)Nc1c(OC)ccc2cc3[n+](cc12)CCc1cc(OC)c(OC)cc1-3.[Cl-]` the value was 37.2%; for `C=CCc1c2[n+](cc3c(OC)c(OC)ccc13)CCc1cc(OC)c(OC)cc1-2.[Br-]`, 36.5%; for `COc1cc2c(cc1OC)-c1cc3ccc(OC)c(OCCC4CCCCC4)c3c[n+]1CC2.[Br-]`, 36.5%.
As to `COc1cc2c(cc1OC)-c1cc3ccc(OC)c(OCc4ccc(C)cc4)c3c[n+]1CC2.[Br-]`, the “%max” value in data set [1] is recorded as 35.2%.
Still for that read-out and setting: to `COc1cc2c(cc1OC)-c1c(Cc3ccc(C)cc3)c3ccc(OC)c(OC)c3c[n+]1CC2.[Br-]` belongs 38.3%.
In the case of `COc1cccc(COc2c(OC)ccc3cc4[n+](cc23)CCc2cc(OC)c(OC)cc2-4)c1.[Br-]`, the “%max” value in data set [1] stood at 34.8%. Moreover, the viability at 100 µM in data set [6] was 90%.
Turning to `COc1cc2c(cc1OC)-c1cc3ccc(OC)c(OCc4cccc(C#N)c4)c3c[n+]1CC2.[Br-]`, the “%max” value in data set [1] was found to be 35.5%.
As to `COc1cc2c(cc1OC)-c1cc3ccc(OC)c(NCc4ccc(C)cc4)c3c[n+]1CC2.[Cl-]`, the “%max” value in data set [1] is recorded as 33.2%.
Same read-out and setting: to `COc1cc2c(cc1OC)-c1cc3ccc(OC)c(NC(=O)C4CCCC4)c3c[n+]1CC2.[Cl-]` belongs 34.9%; to `Br.COc1cc2c(cc1OC)-c1c(Cc3ccc([N+](=O)[O-])cc3)c3ccc(OC)c(OC)c3c[n+]1CC2`, 38.6%.
On the same count and under the same terms, to `COc1ccc(CNc2c(OC)ccc3cc4[n+](cc23)CCc2cc(OC)c(OC)cc2-4)c(OC)c1.[Cl-]` belongs 33.5%; to `COc1cc2c(cc1OC)-c1cc3ccc(OC)c(NC(=O)c4ccccc4)c3c[n+]1CC2.[Cl-]`, 35.8%.
On the same count and under the same terms, for `COc1cc2c(cc1OC)-c1cc3ccc(OC)c(OCc4ccc(C(C)C)cc4)c3c[n+]1CC2.[Br-]` the value was 37.5%.
For `COc1cc2c(cc1OC)-c1cc3ccc(OC)c(OCc4ccccc4C#N)c3c[n+]1CC2.[Br-]`, the “%max” value in data set [1] is 30.5%. In addition, the viability at 100 µM in data set [6] is less than 60%. Also, the result in the data set on Platelet [2] and in the data set with Platelet [3] was Active. Further, the inhibition result with Platelet [4] is “Active”. Besides, in the data set on Platelet [5], the Activity result was “Dde”.
`COc1cc2c(cc1OC)-c1cc3ccc(OC)c(NCc4ccccc4)c3c[n+]1CC2.[Cl-]`: the “%max” value in data set [1] amounted to 37.3%.
With `COc1cc2c(cc1OC)-c1cc3ccc(OC)c(OCc4ccccc4C)c3c[n+]1CC2.[Br-]`, the “%max” value in data set [1] is 37.8%.
As for `CCC(=O)Nc1c(OC)ccc2cc3[n+](cc12)CCc1cc(OC)c(OC)cc1-3.[Cl-]`, the “%max” value in data set [1] turned out to be 34.5%.
As for `COc1cc2c(cc1OC)-c1c(C3C=CCCC3)c3ccc(OC)c(OC)c3c[n+]1CC2.[Br-]` (stereo not given), the “%max” value in data set [1] was found to be 39.8%.
Still for that read-out and setting: for `COc1cc2c(cc1OC)-c1c(Cc3cccc(C)c3)c3ccc(OC)c(OC)c3c[n+]1CC2.[Br-]` the value was 41.4%; for `CCCCCNc1c(OC)ccc2cc3[n+](cc12)CCc1cc(OC)c(OC)cc1-3.[Cl-]`, 37.8%; for `COc1cc2c(cc1OC)-c1cc3ccc(OC)c(OCC4CCCCC4)c3c[n+]1CC2.[Br-]`, 33.9%.
Regarding `COc1ccc(C(=O)Nc2c(OC)ccc3cc4[n+](cc23)CCc2cc(OC)c(OC)cc2-4)cc1.[Cl-]`, the “%max” value in data set [1] came to 38.5%.
Same read-out and setting: for `COc1cc2c(cc1OC)-c1cc3ccc(OC)c(OCc4ccc(C#N)cc4)c3c[n+]1CC2.[Br-]` the value was 42.1%.
